The source made the active and inactive calls. No cut-off for these calls is given here.
Tests used:
NCI-H460 [1] = test: cells; assay type: functional; conditions: Homo sapiens, time 72 hrs, read-out: GI
HCT-116 [2] = test: cells; assay type: functional, cell-based; conditions: Homo sapiens, HCT-116, 72 h
Description: Antiproliferative activity against human HCT116 cells assessed as inhibition of cell growth incubated for 72 hrs by CCK-8 assay

SMMC-7721 = test: cells; assay type: functional, cell-based; conditions: Homo sapiens, SMMC-7721, 72 h
Description: Antiproliferative activity against human SMMC7721 cells assessed as inhibition of cell growth incubated for 72 hrs by CCK-8 assay

[3] = biological target: T1, Protein deacetylase HDAC6 (Homo sapiens, UniProt Q9UBN7); test: Inhibition of human recombinant HDAC6 preincubated for 10 mins followed by addition of substrate fluor De Lys SIRT1 deacetylase measured after 30 mins by fluorescent plate reader analysis
T1 sequence (Q9UBN7 whole entry): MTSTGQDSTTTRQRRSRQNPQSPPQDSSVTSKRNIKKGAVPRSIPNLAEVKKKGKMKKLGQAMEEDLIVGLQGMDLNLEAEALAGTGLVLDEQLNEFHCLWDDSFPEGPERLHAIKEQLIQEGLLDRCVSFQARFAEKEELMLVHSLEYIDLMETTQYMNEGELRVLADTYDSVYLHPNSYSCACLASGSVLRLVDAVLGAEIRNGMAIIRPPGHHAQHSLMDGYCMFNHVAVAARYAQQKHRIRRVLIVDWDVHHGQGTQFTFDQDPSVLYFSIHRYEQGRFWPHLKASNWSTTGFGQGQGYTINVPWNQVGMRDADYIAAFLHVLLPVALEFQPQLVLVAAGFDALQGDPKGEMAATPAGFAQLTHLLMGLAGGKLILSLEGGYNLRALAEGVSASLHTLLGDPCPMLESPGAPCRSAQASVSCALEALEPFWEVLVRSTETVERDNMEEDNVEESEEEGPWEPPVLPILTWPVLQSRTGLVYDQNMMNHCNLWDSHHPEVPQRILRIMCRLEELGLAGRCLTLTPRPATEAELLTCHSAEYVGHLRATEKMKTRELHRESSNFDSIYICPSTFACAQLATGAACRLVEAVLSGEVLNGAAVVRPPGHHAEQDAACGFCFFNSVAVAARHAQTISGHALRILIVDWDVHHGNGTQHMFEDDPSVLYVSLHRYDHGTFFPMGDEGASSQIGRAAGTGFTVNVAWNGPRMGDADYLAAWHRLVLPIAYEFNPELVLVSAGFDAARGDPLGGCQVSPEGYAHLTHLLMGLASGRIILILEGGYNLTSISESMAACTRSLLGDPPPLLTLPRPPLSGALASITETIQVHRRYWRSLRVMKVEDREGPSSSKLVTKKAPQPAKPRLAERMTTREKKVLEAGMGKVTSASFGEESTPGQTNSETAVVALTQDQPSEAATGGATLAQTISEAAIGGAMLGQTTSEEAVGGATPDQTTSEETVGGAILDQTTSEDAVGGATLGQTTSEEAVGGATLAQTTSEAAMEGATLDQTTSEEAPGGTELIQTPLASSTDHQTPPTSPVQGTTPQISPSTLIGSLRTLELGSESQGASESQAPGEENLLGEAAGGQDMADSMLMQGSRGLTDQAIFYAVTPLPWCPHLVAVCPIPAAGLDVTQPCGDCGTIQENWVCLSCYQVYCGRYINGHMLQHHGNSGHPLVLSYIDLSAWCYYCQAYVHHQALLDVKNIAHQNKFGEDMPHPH

Histone deacetylase 8 = biological target: T2, Histone deacetylase 8 (Homo sapiens, UniProt Q9BY41); test: Inhibition of human recombinant HDAC8 preincubated for 10 mins followed by substrate addition measured after 30 mins by fluorescent plate reader analysis
T2 sequence (Q9BY41 whole entry): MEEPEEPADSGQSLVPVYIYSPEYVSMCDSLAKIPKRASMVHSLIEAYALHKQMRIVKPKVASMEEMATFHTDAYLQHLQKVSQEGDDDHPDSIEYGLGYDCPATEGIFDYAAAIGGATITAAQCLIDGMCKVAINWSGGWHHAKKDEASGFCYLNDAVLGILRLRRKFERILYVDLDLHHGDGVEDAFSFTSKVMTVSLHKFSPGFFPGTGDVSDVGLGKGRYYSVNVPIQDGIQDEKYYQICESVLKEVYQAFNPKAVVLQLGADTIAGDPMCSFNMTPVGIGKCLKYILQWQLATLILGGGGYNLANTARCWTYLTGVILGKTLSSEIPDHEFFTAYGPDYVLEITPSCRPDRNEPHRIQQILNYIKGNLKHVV

CDK2/Cyclin A2 = CDK2/Cyclin A2 (Homo sapiens, UniProt P24941); test: Inhibition of recombinant human full length CDK2/cyclin A2 incubated for 10 mins by ADP-Glo reagent assay; assay type: protein-complex assay
[4] = biological target: Cyclin-dependent kinase 4/cyclin D1 (Homo sapiens, UniProt P11802); test: Inhibition of recombinant human full length CDK4/cyclin D1 expressed in Sf9 cells incubated for 10 mins by ADP-Glo reagent assay
CDK6/cyclin D3 = CDK6/cyclin D3 (Homo sapiens, UniProt Q00534); test: Inhibition of recombinant human full length CDK6/cyclin D3 incubated for 10 mins by ADP-Glo reagent assay; assay type: protein-complex assay
A-375 [5] = test: Antimigratory activity against human A375 cells assessed as inhibition of cell migration at 0.25 uM measured after 48 hrs by cell scratch assay; assay type: functional, cell-based
NCI-H460 [6] = test: Antimigratory activity against human H460 cells assessed as inhibition of cell migration at 0.5 uM measured after 48 hrs by cell scratch assay; assay type: functional, cell-based
A-375 [7] = test: Cell cycle arrest in human A375 cells assessed as increase in number of cells at G2/M phase at 0.5 to 2 uM incubated for 24 hrs by propidium iodide staining based flow cytometry; assay type: functional; conditions: dose 0.5-2 µM
HCT-116 [8] = test: Cell cycle arrest in human HCT116 cells assessed as increase in number of cells at G2/M phase at 0.5 to 2 uM incubated for 24 hrs by propidium iodide staining based flow cytometry; assay type: functional; conditions: dose 0.5-2 µM
A-375 [9] = test: Induction of apoptosis in human A375 cells assessed as number of apoptotic cells at 2 uM incubated for 48 hrs by annexin V-FITC/PI based flow cytometric analysis relative to control; assay type: functional
HCT-116 [10] = test: Induction of apoptosis in human HCT116 cells assessed as number of apoptotic cells at 2 uM incubated for 48 hrs by annexin V-FITC/PI based flow cytometric analysis relative to control; assay type: functional
HeLa = test: Induction of apoptosis in human HeLa cells assessed as number of apoptotic cells at 0.5 to 2 uM incubated for 48 hrs by annexin V-FITC/PI based flow cytometric analysis; assay type: functional, cell-based; conditions: dose 0.5-2 µM
[11] = Half life in ICR mouse at 20 mg/kg, ip by LC-MS/MS analysis; assay type: ADME, organism-based; conditions: in vivo
[12] = Cmax in ICR mouse at 20 mg/kg, ip by LC-MS/MS analysis; assay type: ADME, organism-based; set-up: route intraperitoneal, dose 20 mg/kg; conditions: in vivo
[13] = MRT (0 to infinity) in ICR mouse at 20 mg/kg, ip by LC-MS/MS analysis; assay type: ADME, organism-based; conditions: in vivo
HCT-116 [14] = test: cells; assay type: functional; conditions: Homo sapiens, time 72 hrs, read-out: GI
NCI-H460 [15] = test: cells; assay type: functional; conditions: Homo sapiens, time 72 hrs, read-out: GI; remark: listed apart in the source
A-375 [16] = test: Induction of ROS generation in human A375 cells at 1 uM measured after 24 hrs by fluorescence microscopic analysis

Sequence of CDK6/cyclin D3 (P30281 whole entry): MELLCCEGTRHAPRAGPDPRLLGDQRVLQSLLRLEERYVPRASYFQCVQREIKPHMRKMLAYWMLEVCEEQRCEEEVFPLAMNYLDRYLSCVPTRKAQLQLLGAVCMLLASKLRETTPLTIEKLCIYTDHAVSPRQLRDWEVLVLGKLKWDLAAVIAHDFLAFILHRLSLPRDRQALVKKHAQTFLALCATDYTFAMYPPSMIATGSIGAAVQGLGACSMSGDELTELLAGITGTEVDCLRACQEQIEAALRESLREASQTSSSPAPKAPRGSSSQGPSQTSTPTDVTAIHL
Sequence of CDK6/cyclin D3 (Q00534 whole entry): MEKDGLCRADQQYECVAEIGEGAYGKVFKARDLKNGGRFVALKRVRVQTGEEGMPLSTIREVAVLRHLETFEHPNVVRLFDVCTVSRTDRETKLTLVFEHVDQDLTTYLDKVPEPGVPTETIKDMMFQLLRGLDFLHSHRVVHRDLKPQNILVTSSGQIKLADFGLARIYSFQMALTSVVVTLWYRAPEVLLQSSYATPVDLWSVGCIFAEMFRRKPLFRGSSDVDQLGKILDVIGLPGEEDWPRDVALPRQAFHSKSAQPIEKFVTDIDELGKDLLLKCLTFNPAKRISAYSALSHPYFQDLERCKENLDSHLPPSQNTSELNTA
Sequence of Cyclin-dependent kinase 4/cyclin D1 (P11802 whole entry): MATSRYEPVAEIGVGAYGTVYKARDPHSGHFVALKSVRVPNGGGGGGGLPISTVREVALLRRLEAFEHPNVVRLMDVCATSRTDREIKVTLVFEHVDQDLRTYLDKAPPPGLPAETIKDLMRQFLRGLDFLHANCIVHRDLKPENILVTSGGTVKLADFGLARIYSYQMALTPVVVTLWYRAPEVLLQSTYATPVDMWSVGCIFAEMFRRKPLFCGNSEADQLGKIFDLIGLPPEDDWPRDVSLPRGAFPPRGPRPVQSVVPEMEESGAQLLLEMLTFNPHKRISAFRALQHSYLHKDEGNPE
Sequence of Cyclin-dependent kinase 4/cyclin D1 (P24385 whole entry, further chain): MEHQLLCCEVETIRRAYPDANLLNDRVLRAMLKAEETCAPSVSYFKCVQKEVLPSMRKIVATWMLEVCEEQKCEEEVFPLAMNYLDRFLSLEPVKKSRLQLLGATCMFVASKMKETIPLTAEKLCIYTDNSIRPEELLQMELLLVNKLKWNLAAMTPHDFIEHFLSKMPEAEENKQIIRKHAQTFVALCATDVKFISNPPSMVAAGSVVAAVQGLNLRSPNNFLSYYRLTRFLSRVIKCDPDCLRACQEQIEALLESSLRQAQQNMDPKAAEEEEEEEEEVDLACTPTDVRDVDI

Row | SMILES | inhibition of growth at 8 µM (NCI-H460 [1]) | IC50 (HCT-116 [2]) | IC50 (SMMC-7721) | IC50 [3] | IC50 (Histone deacetylase 8) | IC50 (CDK2/Cyclin A2) | IC50 [4] | IC50 (CDK6/cyclin D3) | inhibition (A-375 [5]) | inhibition (NCI-H460 [6]) | Activity (A-375 [7]) | Activity (HCT-116 [8]) | Activity (A-375 [9]) | Activity (HCT-116 [10]) | Activity (HeLa) | t1/2 [11] | Cmax [12] | MRT inf [13] | inhibition of growth at 2 µM (HCT-116 [14]) | inhibition of growth at 2 µM (NCI-H460 [15]) | also measured
1 | Nc1ccccc1NC(=O)c1ccc(CNC(=O)c2n[nH]cc2NC(=O)c2c(Cl)cccc2Cl)cc1 | 78.3% | 710 nM | 7760 nM | > 1000 nM | > 1000 nM | 0.3 nM | > 1000 nM | > 1000 nM | Active | Active | Active | Active | 97.22% | 60.6% | Active | 2.61 h | 7570 ng/mL | 3.31 h | 73.8% | 32.8% | Activity (A-375 [16]): Active
2 | Nc1ccccc1NC(=O)Cc1ccc(NC(=O)c2n[nH]cc2NC(=O)c2c(Cl)cccc2Cl)cc1 | 67.4% | 1450 nM | 5220 nM | > 1000 nM | > 1000 nM | 0.56 nM | > 1000 nM | > 1000 nM | Active | Active | Active | Active | 73.08% | 77.1% | Active | 1.63 h | 2170 ng/mL | 2.36 h | 72.9% | 57.3% | Activity (A-375 [16]): Active
